Values belong to the molecule of their own block, whether it stands above or below them.
Tests used:
[1] = target: T1, Metabotropic glutamate receptor 5 (Rattus norvegicus, UniProt P31424); test: Positive allosteric modulation of rat mGlu5 expressed in HEK293 cells in presence of glutamate EC20 concentration by Fluo-2AM dye based fluorescence analysis; assay type: cell-based
Target sequence in this assay (P31424 whole entry): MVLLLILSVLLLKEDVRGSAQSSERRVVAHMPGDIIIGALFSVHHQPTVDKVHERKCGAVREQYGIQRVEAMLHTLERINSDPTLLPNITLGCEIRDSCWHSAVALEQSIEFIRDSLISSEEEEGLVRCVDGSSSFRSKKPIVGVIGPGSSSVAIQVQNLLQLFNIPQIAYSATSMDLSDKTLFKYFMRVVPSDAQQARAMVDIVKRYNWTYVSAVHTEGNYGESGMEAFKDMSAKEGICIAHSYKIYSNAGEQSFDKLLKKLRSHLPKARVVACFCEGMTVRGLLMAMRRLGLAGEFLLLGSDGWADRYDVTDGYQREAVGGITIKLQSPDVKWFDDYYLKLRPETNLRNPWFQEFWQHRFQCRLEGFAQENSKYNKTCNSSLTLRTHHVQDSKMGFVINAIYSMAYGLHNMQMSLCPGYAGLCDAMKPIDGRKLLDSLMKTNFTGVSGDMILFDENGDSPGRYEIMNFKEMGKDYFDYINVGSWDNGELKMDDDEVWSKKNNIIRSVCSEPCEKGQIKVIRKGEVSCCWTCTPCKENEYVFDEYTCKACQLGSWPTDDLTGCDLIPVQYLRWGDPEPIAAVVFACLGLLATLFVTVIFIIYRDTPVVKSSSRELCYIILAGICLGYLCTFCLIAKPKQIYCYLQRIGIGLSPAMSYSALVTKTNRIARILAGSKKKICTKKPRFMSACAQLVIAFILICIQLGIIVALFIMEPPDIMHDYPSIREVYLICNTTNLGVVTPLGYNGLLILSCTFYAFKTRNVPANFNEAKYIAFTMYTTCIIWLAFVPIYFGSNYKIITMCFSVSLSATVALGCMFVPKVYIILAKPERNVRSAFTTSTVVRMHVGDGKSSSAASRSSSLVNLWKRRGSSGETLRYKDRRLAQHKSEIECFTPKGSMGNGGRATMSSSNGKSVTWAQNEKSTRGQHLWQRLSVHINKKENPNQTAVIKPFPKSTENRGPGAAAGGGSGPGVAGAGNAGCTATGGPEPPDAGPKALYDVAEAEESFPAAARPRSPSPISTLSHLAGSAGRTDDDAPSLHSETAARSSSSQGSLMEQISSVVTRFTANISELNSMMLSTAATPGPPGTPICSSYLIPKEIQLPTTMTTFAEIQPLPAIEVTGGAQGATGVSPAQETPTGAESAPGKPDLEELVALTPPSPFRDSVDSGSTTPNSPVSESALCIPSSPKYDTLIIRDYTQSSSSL

[2] = target: Metabotropic glutamate receptor 3 (Rattus norvegicus, UniProt P31422); test: Negative allosteric modulation of rat mGlu3 assessed as assessed as thallium flux through GIRK channels by cell-based assay
[3] = target: T2, Metabotropic glutamate receptor 2 (Homo sapiens, UniProt Q14416); test: Negative allosteric modulation of mGlu2 by cell-based assay
T2 sequence (Q14416 whole entry): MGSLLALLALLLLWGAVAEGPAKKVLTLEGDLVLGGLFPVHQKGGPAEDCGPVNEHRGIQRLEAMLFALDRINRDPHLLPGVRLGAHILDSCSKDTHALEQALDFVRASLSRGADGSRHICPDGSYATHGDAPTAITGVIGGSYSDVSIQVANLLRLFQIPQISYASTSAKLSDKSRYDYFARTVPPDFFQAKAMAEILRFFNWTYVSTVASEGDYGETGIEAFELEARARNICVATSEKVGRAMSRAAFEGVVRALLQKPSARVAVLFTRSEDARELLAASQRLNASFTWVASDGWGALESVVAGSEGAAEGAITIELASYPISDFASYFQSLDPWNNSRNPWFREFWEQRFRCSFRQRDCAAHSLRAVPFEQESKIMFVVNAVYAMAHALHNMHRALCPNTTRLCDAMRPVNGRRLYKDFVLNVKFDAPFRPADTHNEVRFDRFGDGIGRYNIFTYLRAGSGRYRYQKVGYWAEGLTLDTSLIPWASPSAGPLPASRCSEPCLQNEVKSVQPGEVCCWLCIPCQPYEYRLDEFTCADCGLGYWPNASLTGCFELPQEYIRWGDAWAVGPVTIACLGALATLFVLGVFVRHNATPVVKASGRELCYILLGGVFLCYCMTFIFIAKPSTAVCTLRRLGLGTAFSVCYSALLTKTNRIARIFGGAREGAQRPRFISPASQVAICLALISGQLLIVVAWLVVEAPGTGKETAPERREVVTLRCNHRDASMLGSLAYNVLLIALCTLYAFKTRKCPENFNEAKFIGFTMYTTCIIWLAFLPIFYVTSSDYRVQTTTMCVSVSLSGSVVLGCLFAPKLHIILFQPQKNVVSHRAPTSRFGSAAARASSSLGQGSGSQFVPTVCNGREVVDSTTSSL

[4] = target: T3, Metabotropic glutamate receptor 3 (Homo sapiens, UniProt Q14832); test: Negative allosteric modulation of mGlu3 by cell-based assay
Target sequence in this assay (Q14832 whole entry): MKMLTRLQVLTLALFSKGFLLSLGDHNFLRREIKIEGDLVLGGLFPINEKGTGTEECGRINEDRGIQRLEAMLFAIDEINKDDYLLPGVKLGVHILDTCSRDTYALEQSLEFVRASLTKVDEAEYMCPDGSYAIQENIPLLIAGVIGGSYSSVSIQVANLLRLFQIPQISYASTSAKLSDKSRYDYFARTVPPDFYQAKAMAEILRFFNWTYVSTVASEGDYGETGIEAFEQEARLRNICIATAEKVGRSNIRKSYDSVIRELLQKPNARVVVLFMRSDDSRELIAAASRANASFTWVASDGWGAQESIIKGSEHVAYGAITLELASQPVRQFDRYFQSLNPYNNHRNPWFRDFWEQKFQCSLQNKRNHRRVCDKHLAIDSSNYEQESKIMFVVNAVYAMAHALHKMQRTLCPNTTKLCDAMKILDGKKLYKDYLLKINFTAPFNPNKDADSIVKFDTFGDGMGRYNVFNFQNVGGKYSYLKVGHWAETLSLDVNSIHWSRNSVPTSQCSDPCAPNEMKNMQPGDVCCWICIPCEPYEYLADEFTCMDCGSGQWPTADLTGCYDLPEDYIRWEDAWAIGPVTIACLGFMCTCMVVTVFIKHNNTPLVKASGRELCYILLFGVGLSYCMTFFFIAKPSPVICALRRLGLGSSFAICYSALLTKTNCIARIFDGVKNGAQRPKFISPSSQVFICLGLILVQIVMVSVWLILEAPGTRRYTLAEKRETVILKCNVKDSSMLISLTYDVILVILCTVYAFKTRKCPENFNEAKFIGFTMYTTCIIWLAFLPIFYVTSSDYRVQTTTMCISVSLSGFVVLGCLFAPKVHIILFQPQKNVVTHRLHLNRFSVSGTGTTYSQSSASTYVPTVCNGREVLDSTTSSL

[5] = target: T3, Metabotropic glutamate receptor 3; test: Negative allosteric modulation of mGlu3 assessed as thallium flux through GIRK channels by cell-based assay
Target sequence in this assay (Q14832 whole entry): as above

[6] = target: T3, Metabotropic glutamate receptor 3; test: Negative allosteric modulation of mGlu3 assessed as inhibition of glutamate-induced thallium flux through GIRK channels by cell-based assay; parameters: concentration or dose not given beside the values; settings: concentration not given here
Target sequence in this assay (Q14832 23-879 limits assumed): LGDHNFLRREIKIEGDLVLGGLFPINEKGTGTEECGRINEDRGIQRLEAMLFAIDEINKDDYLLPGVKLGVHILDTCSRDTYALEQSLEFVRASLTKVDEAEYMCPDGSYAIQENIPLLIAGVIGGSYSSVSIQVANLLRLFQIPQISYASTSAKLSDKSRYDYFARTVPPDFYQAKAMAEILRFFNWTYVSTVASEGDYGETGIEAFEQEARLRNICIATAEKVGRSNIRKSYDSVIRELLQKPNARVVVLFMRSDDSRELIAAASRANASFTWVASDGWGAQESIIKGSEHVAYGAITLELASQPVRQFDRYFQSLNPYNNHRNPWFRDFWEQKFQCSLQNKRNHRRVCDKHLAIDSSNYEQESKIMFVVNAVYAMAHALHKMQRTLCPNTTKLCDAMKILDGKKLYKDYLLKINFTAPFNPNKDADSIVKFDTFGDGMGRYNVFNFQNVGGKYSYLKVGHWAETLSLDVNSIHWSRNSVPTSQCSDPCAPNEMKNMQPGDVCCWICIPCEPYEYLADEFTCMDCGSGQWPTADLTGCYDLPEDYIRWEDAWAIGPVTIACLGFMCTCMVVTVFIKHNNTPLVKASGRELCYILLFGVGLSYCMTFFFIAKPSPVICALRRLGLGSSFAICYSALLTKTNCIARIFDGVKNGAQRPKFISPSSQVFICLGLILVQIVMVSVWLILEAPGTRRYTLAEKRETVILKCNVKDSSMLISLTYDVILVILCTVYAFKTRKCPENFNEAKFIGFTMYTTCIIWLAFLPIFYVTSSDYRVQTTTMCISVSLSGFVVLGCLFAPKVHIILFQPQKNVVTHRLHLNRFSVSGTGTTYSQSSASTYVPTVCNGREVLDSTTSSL

[7] = target: T3, Metabotropic glutamate receptor 3; test: Negative allosteric modulation of mGlu3 assessed as inhibition of glutamate-induced calcium mobilization in presence of Galpha15 by cell based assay; assay type: functional
Target sequence in this assay (Q14832 whole entry): as the sequence (Q14832 whole entry) above

[8] = target: T1, Metabotropic glutamate receptor 5; test: Positive allosteric modulation of mGlu5 assessed as potentiation of glutamate-induced calcium mobilization by cell based assay; assay type: functional
Target sequence in this assay (P31424 whole entry, looked up): as the sequence (P31424 whole entry) above

[9] = Selectivity index, ratio IC50 for mGlu2 to IC50 for mGlu3
Cytochrome P450 3A4 = Cytochrome P450 3A4 (Homo sapiens, UniProt P08684); test: Inhibition of CYP3A4 in human liver microsomes; assay type: ADME, Microsome
Cytochrome P450 3A4, sequence (P08684 whole entry): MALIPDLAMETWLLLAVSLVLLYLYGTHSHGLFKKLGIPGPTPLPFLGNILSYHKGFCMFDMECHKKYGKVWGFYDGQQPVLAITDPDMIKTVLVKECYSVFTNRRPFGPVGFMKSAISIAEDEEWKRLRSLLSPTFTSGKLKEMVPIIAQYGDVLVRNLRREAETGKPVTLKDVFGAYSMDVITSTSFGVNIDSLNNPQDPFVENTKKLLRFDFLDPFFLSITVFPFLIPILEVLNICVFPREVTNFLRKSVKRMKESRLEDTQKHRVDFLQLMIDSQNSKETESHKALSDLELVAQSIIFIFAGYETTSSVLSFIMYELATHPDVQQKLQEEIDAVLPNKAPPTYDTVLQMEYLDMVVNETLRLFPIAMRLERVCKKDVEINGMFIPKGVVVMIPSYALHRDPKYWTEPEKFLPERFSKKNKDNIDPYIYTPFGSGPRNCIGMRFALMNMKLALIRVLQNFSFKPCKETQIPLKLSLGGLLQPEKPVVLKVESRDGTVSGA

Cytochrome P450 2C9 = Cytochrome P450 2C9 (Homo sapiens, UniProt P11712); test: Inhibition of CYP2C9 in human liver microsomes; assay type: ADME, Microsome
Cytochrome P450 2C9, sequence (P11712 whole entry): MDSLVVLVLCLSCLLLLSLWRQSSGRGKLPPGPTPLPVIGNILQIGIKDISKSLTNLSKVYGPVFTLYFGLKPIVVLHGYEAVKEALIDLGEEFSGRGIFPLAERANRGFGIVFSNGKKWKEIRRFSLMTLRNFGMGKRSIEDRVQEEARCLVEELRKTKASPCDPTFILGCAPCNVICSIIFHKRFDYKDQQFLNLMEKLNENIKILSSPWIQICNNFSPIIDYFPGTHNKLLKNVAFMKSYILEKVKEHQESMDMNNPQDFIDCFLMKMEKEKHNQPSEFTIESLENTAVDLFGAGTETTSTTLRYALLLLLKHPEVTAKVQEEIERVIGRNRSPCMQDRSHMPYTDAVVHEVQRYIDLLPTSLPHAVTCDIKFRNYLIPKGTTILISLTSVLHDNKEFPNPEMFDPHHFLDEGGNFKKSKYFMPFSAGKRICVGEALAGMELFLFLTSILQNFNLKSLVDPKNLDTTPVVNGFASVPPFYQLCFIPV

Cytochrome P450 2D6 = Cytochrome P450 2D6 (Homo sapiens, UniProt P10635); test: Inhibition of CYP2D6 in human liver microsomes; assay type: ADME, Microsome
Cytochrome P450 1A2 = target: T4, Cytochrome P450 1A2 (Homo sapiens, UniProt P05177); test: Inhibition of CYP1A2 in human liver microsomes; assay type: ADME, Microsome
T4 sequence (P05177 whole entry): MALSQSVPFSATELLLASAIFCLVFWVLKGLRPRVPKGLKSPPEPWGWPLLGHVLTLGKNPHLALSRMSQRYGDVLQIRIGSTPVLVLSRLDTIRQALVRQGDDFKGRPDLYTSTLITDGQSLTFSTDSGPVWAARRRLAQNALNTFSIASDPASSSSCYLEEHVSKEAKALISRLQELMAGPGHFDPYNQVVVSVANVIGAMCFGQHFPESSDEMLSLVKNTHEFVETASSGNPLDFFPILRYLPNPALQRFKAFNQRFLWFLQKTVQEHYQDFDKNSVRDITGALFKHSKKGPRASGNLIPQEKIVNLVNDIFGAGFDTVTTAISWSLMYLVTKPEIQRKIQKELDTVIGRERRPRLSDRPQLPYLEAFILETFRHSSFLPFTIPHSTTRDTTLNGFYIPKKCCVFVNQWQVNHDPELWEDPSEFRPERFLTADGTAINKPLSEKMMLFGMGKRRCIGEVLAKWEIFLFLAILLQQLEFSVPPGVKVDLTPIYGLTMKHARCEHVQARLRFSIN

[10] = Fraction unbound in rat plasma; assay type: ADME, cell-free
[11] = Fraction unbound in human plasma; assay type: ADME, cell-free
[12] = Clearance in rat at 1 mg/kg, iv; assay type: ADME, organism-based; parameters: dose 1 mg/kg, route intravenous; settings: in vivo
[13] = Volume of distribution at steady-state concentration in rat at 1 mg/kg, iv; assay type: ADME, organism-based; parameters: dose 1 mg/kg, route intravenous; settings: in vivo, read-out: Vdss
[14] = Half life in rat at 1 mg/kg, iv; assay type: ADME, organism-based; parameters: dose 1 mg/kg, route intravenous; settings: in vivo
Brain = test: Drug level in rat brain at 10 mg/kg; assay type: ADME, organism-based; parameters: dose 10 mg/kg; settings: in vivo, read-out: Drug uptake
Plasma = test: Plasma concentration in rat at 10 mg/kg; assay type: ADME, organism-based; parameters: dose 10 mg/kg; settings: in vivo
Nucleic Acid = test: Ratio of drug level in brain to plasma of rat at 10 mg/kg; assay type: ADME, organism-based; parameters: dose 10 mg/kg
[15] = target: T1, Metabotropic glutamate receptor 5; test: Negative allosteric modulation of mGlu5 assessed as inhibition of glutamate-induced calcium mobilization by cell based assay; assay type: functional
Target sequence in this assay (P31424 whole entry, looked up): as the sequence (P31424 whole entry) above

[16] = Drug metabolism in rat liver microsome assessed as CYP450-mediated (R)-(3-(hydroxymethyl)piperidin-1-yl)(4-((4-hydroxyphenyl)ethynyl)phenyl)methanone formation; assay type: ADME; settings: microsomes
[17] = Drug metabolism in human liver microsome assessed as CYP450-mediated (R)-(3-(hydroxymethyl)piperidin-1-yl)(4-((4-hydroxyphenyl)ethynyl)phenyl)methanone formation; assay type: ADME; settings: microsomes
[18] = target: T2, Metabotropic glutamate receptor 2; test: Negative allosteric modulation of human mGlu2 expressed in AV-12 cells in presence of glutamate EC90 concentration by FLIPR assay; assay type: cell-based, AV12
[19] = target: T3, Metabotropic glutamate receptor 3; test: Negative allosteric modulation of human mGlu3 expressed in AV-12 cells in presence of glutamate EC90 concentration by FLIPR assay; assay type: cell-based, AV12
Target sequence in this assay (Q14832 whole entry): as the sequence (Q14832 whole entry) above

[20] = target: T2, Metabotropic glutamate receptor 2; test: Negative allosteric modulation of mGlu2 assessed as thallium flux through GIRK channels by cell-based assay

IC50 [3]: 0.296 µM | IC50 [4]: 270 nM
Structure (SMILES): Cc1cc(-c2cccc(C3=Nc4cc(C)c(C(F)(F)F)cc4NC(=O)C3)c2)cc(C)n1

IC50 ([5]; read-out: IC50): 2.5 µM | inhibition [6]: -1.1%
Structure (SMILES): COc1ccc(C#Cc2ccc(C(=O)N3CCCC(O)C3)cc2)cc1 (centres undefined)

IC50 [3]: > 10 µM | IC50 ([5]; read-out: pIC50 (converted)): 3.24 µM | inhibition [6]: -1.7%
Structure (SMILES): COc1ccc(C#Cc2ccc(C(=O)N3CCC[C@H](CO)C3)cc2)cc1

IC50 ([5]; read-out: IC50): > 10 µM | inhibition [6]: 9.6%
Structure (SMILES): CCN1CCC[C@H]1CC(=O)c1ccc(C#Cc2ccc(OC)cc2)cc1

IC50 ([5]; read-out: IC50): 5.7 µM | inhibition [6]: 2.2%
Structure (SMILES): COc1ccc(C#Cc2ccc(C(=O)N3CCC[C@H](C(=O)O)C3)cc2)cc1

The next lines start with the molecule.

Structure (SMILES): O=C(c1ccc(C#Cc2ccccc2)cc1)N1CCC(O)CC1
EC50 [1]: 270 nM | IC50 [2]: > 10 µM

Structure (SMILES): COc1ccc(C#Cc2ccc(C(=O)N3CCCC(CO)C3)cc2)cc1 (racemic)
IC50 ([5]; read-out: IC50): 2.1 µM | inhibition [6]: 0.5%

Structure (SMILES): COc1ccc(C#Cc2ccc(C(=O)N3CCC(O)CC3)cc2)cc1
IC50 ([5]; read-out: IC50): 3.8 µM | inhibition [6]: 10.4%

Structure (SMILES): COc1ccc(C#Cc2ccc(C(=O)N3CCC(C)(O)CC3)cc2)cc1
IC50 ([5]; read-out: IC50): 5 µM | inhibition [6]: 4.4%

Structure (SMILES): COc1ccc(C#Cc2ccc(C(=O)N3CCN(C(C)C)CC3)cc2)cc1
IC50 ([5]; read-out: IC50): > 10 µM | inhibition [6]: 7.6%

Structure (SMILES): COc1ccc(C#Cc2ccc(C(=O)N3CCC[C@@H](C(=O)O)C3)cc2)cc1
IC50 ([5]; read-out: IC50): > 10 µM | inhibition [6]: 16.4%

Structure (SMILES): COc1ccc(C#Cc2ccc(C(=O)N3CCC[C@@H](CO)C3)cc2)cc1
IC50 [3]: > 10 µM | IC50 ([5]; read-out: IC50): 1.5 µM | inhibition [6]: -4.4% | IC50 [7]: 660 nM | EC50 [8]: > 10 µM | Ratio IC50 [9]: 15 | IC50 (Cytochrome P450 3A4): > 30 µM | IC50 (Cytochrome P450 2C9): > 30 µM | IC50 (Cytochrome P450 2D6): > 30 µM | IC50 (Cytochrome P450 1A2): > 30 µM | fraction unbound [10]: 0.01 | fraction unbound [11]: 0.02 | clearance [12]: 33 mL/min/kg | Vd [13]: 0.6 L/kg | half-life [14]: 16.8 min | concentration (Brain): 16.3 µM | concentration (Plasma): 9.7 µM | BPR (Nucleic Acid): 1.67 | IC50 [15]: > 10 µM | Drug metabolism [16]: Active | Drug metabolism [17]: Active

Structure (SMILES): Clc1ccc(CN[C@H]2CCN(c3ncc(Br)cn3)C2)c(Cl)c1
IC50 [18]: > 12.5 µM | IC50 [19]: 190 nM | IC50 [20]: 17 µM | IC50 ([5]; read-out: IC50): 4.2 µM | Ratio IC50 [9]: 4

Source: ChEMBL document CHEMBL2203026
